The assay concerns Nippostrongylus brasiliensis. Kind of assay: Anthelmintic activity against Nippostrongylus brasiliensis. As to conditions: for EC50: Nippostrongylus brasiliensis. The class given is functional, organism-based.

As to `c1ccc([C@H]2CN3CCSC3=N2)cc1` [LEVAMISOLE], the EC50 (as a rule, the concentration at which the effect is half-maximal) was found to be 210 nM. With `C=C1C[C@H](O)[C@@H](Br)C(C)(C)[C@@]12C=C[C@](C)(O)CC2` [ISORIGIDOL], the Activity is less than 100 µM. On the same count and under the same terms, then `C=C1C[C@@H](O)[C@H](Br)C(C)(C)[C@]12CC=C(C)CC2`, with less than 100 µM.

For `C=C1CC[C@@H](Br)C(C)(C)[C@]12CC[C@](C)(Br)[C@@H](Cl)C2`, the Activity is less than 100 µM. `CCCCCCCCCCCCCC/C=C(/C=O)CCCCCCCCCCCCC` showed an Activity of less than 100 µM.

In the case of `CC1=CC(=O)CC(C)(C)[C@@]12C=CC(=O)CC2`, the Activity is less than 100 µM. As to `C=C1C[C@@H](O)[C@@H](Br)C(C)(C)[C@@]12C=C/C(=C\Br)CC2`, the Activity was less than 100 µM. The same measure, in the same setting: as for `C=C1C[C@@H](O)[C@@H](Br)C(C)(C)[C@@]12C=C/C(=C/Br)CC2`, the figure is less than 100 µM. On to `CCCSc1ccc2[nH]c(NC(=O)OC)nc2c1` [ALBENDAZOLE], for which the 50% effective concentration (EC50) was 340 nM. Same read-out and setting: then `COC(=O)Nc1nc2cc(Sc3ccccc3)ccc2[nH]1` [FENBENDAZOLE], with 120 nM.

`C=C1C[C@@H](O)[C@@H](Br)C(C)(C)[C@@]12C=CC(=O)CC2`: the Activity was less than 100 µM.

Values taken from ChEMBL document CHEMBL1156392, “New sesquiterpene derivatives from the red alga Laurencia scoparia. Isolation, structure determination, and anthelmintic activity” (J Nat Prod, 2001).
